Earlier results on 5 molecules are cited in patent publication US6924277B2, “Cyclized benzamide neurokinin antagonists for use in therapy” (AstraZeneca AB, priority 2000, dated 2005).

Like-named read-outs stand apart in the source and are kept apart here. Peptide text beside a SMILES is read from it.

For data set [1] the following is noted: Elevated plus-maze.
For data set [2] the following is noted: Light-dark box.
Data set [3] has as its system Marmoset. The note with it: Marmoset human intruder; Walsh et al., Psychopharmacology 121: 186-191, 1995.
The conditions of data set [4]: Forced swim test (depression model); only at 30 mg/kg bid; Vassout et al, Neuropeptides 26/S1: 38, 1994.
Setting [5] is: Teixeira et al., Eur J Pharmacol 311(1): 7-14, 1996.
Setting [6] is: Stratton et al., Eur. J. Pharmacol. 250: R11-12, 1993.
Where [7] appears, read: Walsh et al., Psychopharmacology 121: 186-191, 1995.

Regarding `CC(=O)NC1(c2ccccc2)CCN(CC[C@H](CN(C)C(=O)c2ccccc2)c2ccc(Cl)c(Cl)c2)CC1` [SR48968], the Outcome result in data set [1] (setting [5]), in data set [2] (setting [6]), in data set [2] (setting [7]) and in data set [3] was “anxiolytic” throughout.
On to `COC1(C[S@@+]([O-])c2ccccc2)CCN(CCc2c[nH]c3ccc(F)cc23)CC1` [GR159897], for which the Outcome entry in data set [2] (setting [7]) and in data set [3] was “anxiolytic” in each case.
In the case of `CN(Cc1ccccc1)C(=O)[C@H](Cc1ccc2ccccc2c1)NC(=O)[C@@H]1C[C@@H](O)CN1C(=O)c1cn(C)c2ccccc12` [FK888], the Outcome result in data set [1] (setting [5]) is reported as “anxiolytic”.
Turning to `Cc1cc(C)cc(C(=O)N2CC[C@H](NCc3ccnc4ccccc34)C[C@H]2Cc2ccccc2)c1` [CGP 49823], the Outcome result in data set [1] (Vassout et al, Neuropeptides 26/S1: 38, 1994) was “inactive”; the Outcome result (Social interaction test, Vassout et al, Neuropeptides 26/S1: 38, 1994) is “anxiolytic”; the Outcome result (Social interaction, File, Pharm Bio B 58(3): 747-752, 1997) is on record as “anxiolytic”; the Outcome entry in data set [4] was “antidepressant”.
For `C[C@H](NC(=O)CNC(=O)C1CCCCC1)C(=O)N[C@H](Cc1c[nH]c2ccccc12)C(=O)N[C@@H](Cc1ccccc1)C(=O)N(C)C` [GR100679] (HELM PEPTIDE1{[O=C(C1CCCCC1)[*:2]].G.A.[dW].F.[CN(C)[*:1]]}$$$$V2.0), the Outcome result in data set [2] (setting [6]) is reported as “anxiolytic”.
